Data set [1] is described as follows: Tolerability in Sprague-Dawley rats, plasma chemistry markers (Example 20). The format is in vivo. The conditions noted are these: male Sprague-Dawley rats, 50 mg/kg s.c. weekly for 6 weeks (7 doses), 48 hours after last dose. As to the method:
Sprague-Dawley rats are a multipurpose model used for safety and efficacy evaluations. The rats were treated with Ionis modified oligonucleotides from the studies described in the Examples above and evaluated for changes in the levels of various plasma chemistry markers.

Data set [2] in a line: Tolerability in CD-1 mice, plasma chemistry markers (Example 16). The format is in vivo. The conditions noted are these: male CD-1 mice, 50 mg/kg s.c. twice a week for four weeks (8 treatments), day 27. The method, then:
CD-1 mice were treated with modified oligonucleotides selected from studies described above and evaluated for changes in the levels of various plasma chemistry markers.
(§1) Groups of four male CD-1 mice at 4-5 weeks of age (obtained from Charles River) were injected subcutaneously twice a week for four weeks (for a total of 8 treatments) with 50 mg/kg of modified oligonucleotides. One group of male CD-1 mice was injected with PBS. Mice were euthanized on day 27 post start of treatment (24 hrs following the final administration).

The subject of data set [3] is Yap1 mRNA. In words: Dose-dependent inhibition of human Yap1 in SNU-449 cells (Example 9, RTS36584). Format: cell-based. The conditions noted are these: free uptake; for % UTC (Yap1 mRNA): approximately 48 hours. Summed up: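 Read-out was Yap1 mRNA (primer-probe RTS36584) normalised to total RNA by RIBOGREEN, given as % of untreated cells, with IC50 fitted by linear regression of log/linear data. Oligonucleotides were dosed by free uptake to SNU-449 cells, 10,000/well, for ~48 h.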

Data set [4] can be described thus: Tolerability in CD-1 mice, body and organ weights (Example 16). The format is in vivo. The conditions noted are these: male CD-1 mice, 50 mg/kg s.c. twice a week for four weeks (8 treatments), end of study (day 27). As to the method: as §1
Body weights of CD-1 mice were measured at the end of the study, and the average body weight for each group is presented in the table below. Modified oligonucleotides that caused any changes in organ weights outside the expected range for modified oligonucleotides were excluded from further studies.

Data set [5] is described as follows: Tolerability in Sprague-Dawley rats, body and organ weights (Example 20). The format is in vivo. The conditions noted are these: male Sprague-Dawley rats, 50 mg/kg s.c. weekly for 6 weeks (7 doses). As to the method:
Terminal body weight was measured prior to necropsy. Ionis oligonucleotides that caused any changes in organ weights outside the expected range for modified oligonucleotides were excluded from further studies.

Data set [6] can be described thus: Tolerability in Sprague-Dawley rats, kidney function, urine total protein to creatinine ratio (Example 20). To be noted: male Sprague-Dawley rats, 50 mg/kg subcutaneously weekly for 6 weeks (total 7 doses).
Procedure: Male Sprague-Dawley rats were maintained on a 12-hour light/dark cycle and fed ad libitum with Purina normal rat chow. Groups of 4 Sprague-Dawley rats each were weekly injected subcutaneously with 50 mg/kg of Ionis oligonucleotide for 6 weeks (total 7 doses). Forty-eight hours after the last dose, the rats were euthanized; and organs, urine and plasma were harvested for further analysis.
To evaluate the effect of Ionis oligonucleotides on kidney function, urinary levels of total protein and creatinine were measured using an automated clinical chemistry analyzer (Hitachi Olympus AU400c, Melville, N.Y.).
In data set [7] the test system is Yap1 mRNA. The experiment in a line: Yap1 mRNA levels in SNU449 xenograft tumors, alone and in combination with sorafenib (second Example 30). Format: in vivo, human. To be noted: SNU449 xenograft mice, oligonucleotide 50 mg/kg, sorafenib 30 mg/kg orally, tumors collected day 119 post implantation, relative to PBS. The method, then:
Modified oligonucleotides described in the studies above were tested in a hepatocellular carcinoma SNU449 xenograft tumor model. In addition to testing the modified oligonucleotide by itself, combination therapy with sorafenib was also tested. A control oligonucleotide 792169, described herein above, was also tested.
(§2) Five million SNU449 cells in 30% matrigel were implanted subcutaneously into the fatpads of female NOD.Cg-Prkdcscid II2rgtmlWjl/SzJ mice (from Jackson Laboratory) at 4-6 weeks of age. 43 days post implantation (when tumors had reached approximately 100 mm^3 in size), groups of eight mice each were administered with 50 mg/kg modified oligonucleotide daily for 10 days (loading dose), following which they were administered with 50 mg/kg modified oligonucleotide four times a week for one week, following which they were dosed with 50 mg/kg modified oligonucleotide thrice weekly until the end of the study. […] Animals were sacrificed, and tumors were collected on day 119 post implantation.
Yap1 mRNA knockdown in tumors was measured by RT-qPCR as previously described using the Human Yap1 primer-probe set RTS4814. Yap1 mRNA levels were normalized to actin-beta content, as measured by primer probe set RTS5002. Results are presented in the tables below as percent control of the amount of Yap1 mRNA relative to PBS treated animals (% control).

In data set [8] the test system is ERK1/2. The experiment in a line: Measurement of ERK activation (pERK/ERK) in SNU449 xenograft model with sorafenib (second Example 30). Format: in vivo, human. The conditions noted are these: SNU449 xenograft tumors, pERK/ERK relative to PBS control, oligonucleotide 50 mg/kg, sorafenib 30 mg/kg orally. The method, then: Five million SNU449 cells in 30% matrigel were implanted subcutaneously into the fatpads of female NOD.Cg-Prkdcscid II2rgtmlWjl/SzJ mice (from Jackson Laboratory) at 4-6 weeks of age. 43 days post implantation (when tumors had reached approximately 100 mm^3 in size), groups of eight mice each were administered with 50 mg/kg modified oligonucleotide daily for 10 days (loading dose), following which they were administered with 50 mg/kg modified oligonucleotide four times a week for one week, following which they were dosed with 50 mg/kg modified oligonucleotide thrice weekly until the end of the study.
Protein analysis was carried out using standard procedures. […] ERK protein levels were compared to internal control GAPDH. […] The secondary antibody used was donkey anti-rabbit NA934, GE Healthcare. pERK/ERK levels were calculated relative to PBS control to determine % activation of ERK1/2.
Background: Xenograft models place foreign cells or tissue in a host animal.

Data set [9] has as its system SNU449 xenograft tumor. The experiment in a line: Tumor volume in SNU449 xenograft tumor model, alone and in combination with sorafenib (second Example 30). To be noted: SNU449 xenograft, oligonucleotide 50 mg/kg, sorafenib 30 mg/kg orally. Format: in vivo, human. As to the method: Modified oligonucleotides described in the studies above were tested in a hepatocellular carcinoma SNU449 xenograft tumor model. […] A control oligonucleotide 792169, described herein above, was also tested.
as §2
Tumor volumes were also measured at the indicated days in the table below.

Strand notation (5' to 3'): a small letter for the sugar, then the base; units joined by * are phosphorothioate-linked, units joined directly phosphodiester-linked; [ ] holds rarer units or linkages, { } end groups; capitals alone tell only the bases. k = constrained ethyl (cEt); [5mC] = 5-methylcytosine; d = 2'-deoxy (DNA)

In general, IC50 refers to the concentration that inhibits the measured activity by half. Lower therefore signals higher potency.

With “1076187 (kG*kA*kT*dT*dT*dA*dG*dG*dA*dT*dG*d[5mC]*dA*kT*kG*kG; antisense) [compound 1076187]”, in [1], the ALB stood at 2.91 g/dL, the ALT was 54 U/L, the AST was 113 U/L and the BUN came out at 21 mg/dL. The TBIL in [1] is 0.10 mg/dL. In data set [2], this compound gave an ALT of 57 U/L, an AST of 90 U/L, an Albumin of 2.3 g/dL and a BUN of 20 mg/dL. In [2], this compound showed a TBIL of 0.18 mg/dL. Also, the “% UTC (Yap1 mRNA)” value in data set [3] (31.3 nM) is 68 % UTC. Further, the “% UTC (Yap1 mRNA)” value in data set [3] (125.0 nM) was found to be 46 % UTC. Besides, the “% UTC (Yap1 mRNA)” value in data set [3] (500.0 nM) is recorded as 24 % UTC. Besides, in data set [3] (2000.00 nM), the “% UTC (Yap1 mRNA)” value is 12 % UTC. In data set [3] (linear regression on a log/linear plot), the IC50 was determined as 100 nM. Further, in data set [4], the Kidney weight came out at 0.56 g, the Liver weight is recorded as 1.95 g, the Spleen weight is 0.14 g and the body weight amounted to 34 g. In addition, in [5] (end of study), the Kidney weight is on record as 3.0 g, the Liver weight came to 17 g and the Spleen weight amounted to 1.7 g. The same compound had a body weight in data set [5] (terminal, prior to necropsy) of 344 g. Moreover, the “URINE P/C ratio (total protein to creatinine ratio)” value in data set [6] was found to be 5.
Take `CNC(=O)c1cc(Oc2ccc(NC(=O)Nc3ccc(Cl)c(C(F)(F)F)c3)cc2)ccn1` [sorafenib]: the “Yap1 mRNA levels in tumors” value in [7] worked out at 103 % control. The “% activation of ERK1/2” value in data set [8] is recorded as 142%. The “Average Tumor Volume” value is 112 mm^3 in data set [9] (day 43 post tumor implantation); 145 mm^3 in data set [9] (day 46 post tumor implantation); 159 mm^3 in [9] (day 50 post tumor implantation); 173 mm^3 in data set [9] (day 53 post tumor implantation); 200 mm^3 in [9] (day 57 post tumor implantation); 277 mm^3 in [9] (day 67 post tumor implantation). In addition, the “Average Tumor Volume” value in data set [9] (day 71 post tumor implantation) came out at 249 mm^3; in data set [9] (day 75 post tumor implantation), 283 mm^3; in [9] (day 78 post tumor implantation), 322 mm^3; in [9] (day 81 post tumor implantation), 391 mm^3; in data set [9] (day 85 post tumor implantation), 416 mm^3; in data set [9] (day 88 post tumor implantation) it was 451 mm^3. In addition, the “Average Tumor Volume” value in data set [9] (day 92 post tumor implantation) is 508 mm^3; in [9] (day 94 post tumor implantation), 581 mm^3; in [9] (day 98 post tumor implantation), 625 mm^3; in data set [9] (day 101 post tumor implantation), 685 mm^3; in data set [9] (day 105 post tumor implantation) it was 671 mm^3; in data set [9] (day 108 post tumor implantation), 663 mm^3. For the same compound, the “Average Tumor Volume” value in [9] (day 119 post tumor implantation) was found to be 747 mm^3.

The values above are taken from patent publication US11214803B2, “Modulators of YAP1 expression” (Ionis Pharmaceuticals, Inc., priority 2019, dated 2022).
